Measurements as given in ChEMBL document CHEMBL3758163, “Extended structure-activity study of thienopyrimidine-based EGFR inhibitors with evaluation of drug-like properties” (Eur J Med Chem, 2016).
Converted amounts (≈) assume the structure as drawn.

Tests used:
[1] = molecular target: Mitogen-activated protein kinase 1 (Homo sapiens) (UniProt P28482); assay: Inhibition of MAPK1 (unknown origin) at 500 nM
[2] = molecular target: Vascular endothelial growth factor receptor 1 (Homo sapiens) (UniProt P17948); assay: Inhibition of FLT1 (unknown origin) at 500 nM
[3] = molecular target: T1, Ephrin type-A receptor 1 (Homo sapiens) (UniProt P21709); assay: Inhibition of EPHA1 (unknown origin) at 500 nM
T1 sequence (whole entry): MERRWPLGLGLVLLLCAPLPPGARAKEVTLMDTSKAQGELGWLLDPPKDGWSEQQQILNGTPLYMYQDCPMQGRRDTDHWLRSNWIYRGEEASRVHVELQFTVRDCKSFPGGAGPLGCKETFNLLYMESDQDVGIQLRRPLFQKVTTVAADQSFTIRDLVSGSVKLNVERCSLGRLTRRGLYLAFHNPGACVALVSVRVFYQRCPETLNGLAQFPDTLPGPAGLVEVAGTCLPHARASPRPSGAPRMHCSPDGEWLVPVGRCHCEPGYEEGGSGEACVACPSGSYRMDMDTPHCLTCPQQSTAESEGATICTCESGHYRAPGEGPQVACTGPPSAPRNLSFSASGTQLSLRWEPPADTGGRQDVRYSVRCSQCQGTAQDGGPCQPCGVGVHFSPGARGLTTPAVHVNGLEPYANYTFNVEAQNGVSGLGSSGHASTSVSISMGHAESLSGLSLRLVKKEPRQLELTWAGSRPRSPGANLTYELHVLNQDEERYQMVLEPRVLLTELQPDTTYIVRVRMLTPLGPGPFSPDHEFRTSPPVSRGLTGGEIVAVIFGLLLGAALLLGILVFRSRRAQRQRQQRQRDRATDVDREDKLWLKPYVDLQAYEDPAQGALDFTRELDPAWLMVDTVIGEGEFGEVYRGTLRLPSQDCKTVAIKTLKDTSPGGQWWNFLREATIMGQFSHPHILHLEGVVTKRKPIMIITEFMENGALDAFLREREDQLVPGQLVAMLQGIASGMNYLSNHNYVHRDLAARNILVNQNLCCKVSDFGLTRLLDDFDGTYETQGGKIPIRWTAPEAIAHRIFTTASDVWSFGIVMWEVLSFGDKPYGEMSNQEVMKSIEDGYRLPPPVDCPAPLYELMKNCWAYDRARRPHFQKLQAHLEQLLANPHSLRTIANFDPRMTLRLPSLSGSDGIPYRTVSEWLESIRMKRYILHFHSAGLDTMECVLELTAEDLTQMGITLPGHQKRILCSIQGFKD

[4] = molecular target: Hepatocyte growth factor receptor (Homo sapiens) (UniProt P08581); assay: Inhibition of MET (unknown origin) at 500 nM
[5] = molecular target: Fibroblast growth factor receptor 1 (Homo sapiens) (UniProt P11362); assay: Inhibition of FGFR1 (unknown origin) at 500 nM
[6] = molecular target: Dual specificity mitogen-activated protein kinase kinase 1 (Homo sapiens) (UniProt Q02750); assay: Inhibition of MAP2K1 (unknown origin) at 500 nM
[7] = molecular target: Tyrosine-protein kinase SYK (Homo sapiens) (UniProt P43405); assay: Inhibition of SYK (unknown origin) at 500 nM
[8] = Aqueous solubility of compound in 0.01 M PBS buffer at pH 7.4 after 2 hrs by turbidimetric assay; assay type: physicochemical
in vitro = settings: human, Caco-2
Description: Efflux ratio of permeability from basolateral to apical side over apical to basolateral side in human Caco2 cells at 10 uM by LC-MS/MS analysis

[9] = Antiproliferative activity against human Hs578T cells after 72 hrs by CellTiter-Glo assay; assay type: functional, cell-based; settings: Hs-578T
[10] = Antiproliferative activity against human OVCAR3 cells after 72 hrs by CellTiter-Glo assay; assay type: functional, cell-based; settings: OVCAR-3, 72 h
[11] = Antiproliferative activity against human BT474 cells after 72 hrs by CellTiter blue assay; assay type: functional, cell-based; settings: BT-474, 72 h
SW480 = assay: Antiproliferative activity against human SW480 cells after 72 hrs by CellTiter-Glo assay; assay type: functional, cell-based; settings: SW480, 72 h
Danio rerio [12] = species on record: Danio rerio; assay: Toxicity in zebrafish embryo assessed as effect on morphology upto 25 uM; assay type: organism-based; settings: in vivo
MRC5 = assay: Antiproliferative activity against human MRC5 cells after 72 hrs by CellTiter-Glo assay; assay type: cell-based; settings: MRC5, 72 h
[13] = Toxicity in zebrafish embryo assessed as morphological defects for 3.5 days; assay type: organism-based, Danio rerio
[14] = Antiproliferative activity against human PC9 cells after 96 hrs by Sytox green marker based fluorescence analysis; assay type: functional, cell-based; settings: PC-9, 96 h
[15] = Antiproliferative activity against human U937 cells after 72 hrs by CellTiter blue assay; assay type: functional, cell-based; settings: U-937, 72 h
[16] = Antiproliferative activity against human SKBR3 cells after 72 hrs by CellTiter blue assay; assay type: functional, cell-based; settings: SK-BR-3, 72 h
Danio rerio [17] = species on record: Danio rerio; assay: Toxicity in zebrafish embryo assessed as kinked tails at 50 and 100 uM; assay type: organism-based; settings: in vivo
[18] = Antiproliferative activity against human Calu3 cells after 72 hrs by CellTiter blue assay; assay type: functional, cell-based; settings: Calu-3, 72 h
FaDu = assay: Antiproliferative activity against human FADU cells; assay type: functional, cell-based
H9 = assay: Antiproliferative activity against human H9 cells after 72 hrs by CellTiter-Glo assay; assay type: functional, cell-based; settings: H9, 72 h
[19] = Toxicity in zebrafish embryo assessed as survival for 3.5 days; assay type: organism-based, Danio rerio; settings: in vivo

Sequence of Hepatocyte growth factor receptor (Homo sapiens) (P08581 whole entry): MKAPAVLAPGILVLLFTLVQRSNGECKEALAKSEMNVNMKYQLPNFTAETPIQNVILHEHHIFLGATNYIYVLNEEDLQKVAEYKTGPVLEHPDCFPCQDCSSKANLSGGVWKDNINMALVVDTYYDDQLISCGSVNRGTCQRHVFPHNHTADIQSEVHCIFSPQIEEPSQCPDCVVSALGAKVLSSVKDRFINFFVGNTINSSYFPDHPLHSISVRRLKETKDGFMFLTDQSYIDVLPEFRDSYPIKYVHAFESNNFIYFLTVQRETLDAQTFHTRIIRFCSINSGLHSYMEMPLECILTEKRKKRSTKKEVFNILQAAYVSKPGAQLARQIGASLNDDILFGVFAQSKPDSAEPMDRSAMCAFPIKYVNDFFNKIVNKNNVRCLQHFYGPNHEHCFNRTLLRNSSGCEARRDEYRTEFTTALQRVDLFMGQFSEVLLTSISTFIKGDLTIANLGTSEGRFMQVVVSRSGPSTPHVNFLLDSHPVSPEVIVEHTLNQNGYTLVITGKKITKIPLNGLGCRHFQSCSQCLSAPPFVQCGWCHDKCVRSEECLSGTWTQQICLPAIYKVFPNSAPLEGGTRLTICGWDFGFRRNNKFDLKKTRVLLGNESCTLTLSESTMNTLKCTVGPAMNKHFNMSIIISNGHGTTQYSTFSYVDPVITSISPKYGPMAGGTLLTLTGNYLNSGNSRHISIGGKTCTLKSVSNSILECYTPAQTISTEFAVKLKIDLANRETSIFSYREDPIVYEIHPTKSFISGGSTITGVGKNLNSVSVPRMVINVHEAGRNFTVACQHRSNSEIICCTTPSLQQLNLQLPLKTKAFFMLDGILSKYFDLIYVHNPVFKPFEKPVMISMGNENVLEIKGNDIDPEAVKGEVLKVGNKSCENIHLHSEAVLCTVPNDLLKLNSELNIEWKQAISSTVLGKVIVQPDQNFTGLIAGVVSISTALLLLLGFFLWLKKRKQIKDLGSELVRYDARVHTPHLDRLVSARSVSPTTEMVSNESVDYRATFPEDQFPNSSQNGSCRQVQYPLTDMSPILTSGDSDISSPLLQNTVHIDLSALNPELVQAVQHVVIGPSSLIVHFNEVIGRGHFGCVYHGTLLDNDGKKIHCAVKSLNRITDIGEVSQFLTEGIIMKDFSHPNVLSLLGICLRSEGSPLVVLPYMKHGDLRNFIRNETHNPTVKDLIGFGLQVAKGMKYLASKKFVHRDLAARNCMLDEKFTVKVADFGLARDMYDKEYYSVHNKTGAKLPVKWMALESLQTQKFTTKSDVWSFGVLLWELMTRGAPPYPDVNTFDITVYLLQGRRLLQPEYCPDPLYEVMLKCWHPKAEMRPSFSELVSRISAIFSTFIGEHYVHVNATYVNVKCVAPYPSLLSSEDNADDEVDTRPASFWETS
Sequence of Dual specificity mitogen-activated protein kinase kinase 1 (Homo sapiens) (Q02750 whole entry): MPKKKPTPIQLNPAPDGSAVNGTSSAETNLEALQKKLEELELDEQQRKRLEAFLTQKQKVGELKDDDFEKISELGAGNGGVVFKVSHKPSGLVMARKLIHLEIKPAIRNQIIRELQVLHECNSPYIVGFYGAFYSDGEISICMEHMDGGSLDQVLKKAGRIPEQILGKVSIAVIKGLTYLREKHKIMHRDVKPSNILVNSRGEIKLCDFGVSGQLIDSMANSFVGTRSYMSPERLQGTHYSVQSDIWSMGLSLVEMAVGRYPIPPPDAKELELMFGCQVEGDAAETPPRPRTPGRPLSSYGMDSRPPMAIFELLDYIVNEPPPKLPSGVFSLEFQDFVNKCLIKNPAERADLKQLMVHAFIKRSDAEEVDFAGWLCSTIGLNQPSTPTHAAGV
Sequence of Vascular endothelial growth factor receptor 1 (Homo sapiens) (P17948 whole entry): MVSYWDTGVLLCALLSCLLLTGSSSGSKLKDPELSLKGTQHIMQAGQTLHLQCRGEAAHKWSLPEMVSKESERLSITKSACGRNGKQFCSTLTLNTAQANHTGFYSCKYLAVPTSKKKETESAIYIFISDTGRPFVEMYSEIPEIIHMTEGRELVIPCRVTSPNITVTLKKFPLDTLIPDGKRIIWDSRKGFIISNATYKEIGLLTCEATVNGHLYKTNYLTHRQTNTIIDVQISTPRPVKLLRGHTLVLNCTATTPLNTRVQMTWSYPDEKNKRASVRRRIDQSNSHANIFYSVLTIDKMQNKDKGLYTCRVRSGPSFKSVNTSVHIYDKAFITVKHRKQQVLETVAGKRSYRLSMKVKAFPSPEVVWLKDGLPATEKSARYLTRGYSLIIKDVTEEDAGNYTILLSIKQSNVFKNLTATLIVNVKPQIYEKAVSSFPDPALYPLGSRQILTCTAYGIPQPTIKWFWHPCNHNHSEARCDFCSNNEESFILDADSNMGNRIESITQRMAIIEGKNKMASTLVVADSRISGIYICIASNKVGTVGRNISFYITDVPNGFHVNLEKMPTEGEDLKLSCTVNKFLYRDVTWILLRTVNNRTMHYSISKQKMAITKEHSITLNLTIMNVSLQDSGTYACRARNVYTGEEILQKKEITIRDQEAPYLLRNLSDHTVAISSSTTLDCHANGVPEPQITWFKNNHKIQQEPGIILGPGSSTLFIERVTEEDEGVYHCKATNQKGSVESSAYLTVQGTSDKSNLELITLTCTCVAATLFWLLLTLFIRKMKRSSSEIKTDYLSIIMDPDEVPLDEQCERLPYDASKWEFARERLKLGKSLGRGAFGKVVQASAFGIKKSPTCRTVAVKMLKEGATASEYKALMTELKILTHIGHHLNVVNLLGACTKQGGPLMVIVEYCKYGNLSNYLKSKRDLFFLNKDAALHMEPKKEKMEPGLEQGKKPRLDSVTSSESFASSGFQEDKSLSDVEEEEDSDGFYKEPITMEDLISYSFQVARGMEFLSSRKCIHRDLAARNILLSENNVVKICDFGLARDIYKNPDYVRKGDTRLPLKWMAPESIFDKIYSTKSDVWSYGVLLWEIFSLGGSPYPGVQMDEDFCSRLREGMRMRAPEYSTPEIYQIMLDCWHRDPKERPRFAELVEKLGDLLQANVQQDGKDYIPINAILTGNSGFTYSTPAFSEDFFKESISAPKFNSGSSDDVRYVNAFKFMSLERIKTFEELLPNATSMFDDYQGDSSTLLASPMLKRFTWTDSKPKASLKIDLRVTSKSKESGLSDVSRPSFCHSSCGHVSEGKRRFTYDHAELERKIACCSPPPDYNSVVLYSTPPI
Sequence of Mitogen-activated protein kinase 1 (Homo sapiens) (P28482 whole entry): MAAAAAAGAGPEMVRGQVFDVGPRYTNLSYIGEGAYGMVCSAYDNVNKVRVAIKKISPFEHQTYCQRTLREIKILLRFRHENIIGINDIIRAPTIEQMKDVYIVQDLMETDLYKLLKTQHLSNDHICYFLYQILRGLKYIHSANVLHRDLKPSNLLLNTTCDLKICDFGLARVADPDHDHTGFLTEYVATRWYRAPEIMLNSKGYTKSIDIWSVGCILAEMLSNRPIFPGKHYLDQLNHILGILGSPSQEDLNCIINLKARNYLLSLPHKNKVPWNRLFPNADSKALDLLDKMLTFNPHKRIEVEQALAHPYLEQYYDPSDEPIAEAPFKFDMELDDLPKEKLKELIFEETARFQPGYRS
Sequence of Fibroblast growth factor receptor 1 (Homo sapiens) (P11362 22-822 limits assumed): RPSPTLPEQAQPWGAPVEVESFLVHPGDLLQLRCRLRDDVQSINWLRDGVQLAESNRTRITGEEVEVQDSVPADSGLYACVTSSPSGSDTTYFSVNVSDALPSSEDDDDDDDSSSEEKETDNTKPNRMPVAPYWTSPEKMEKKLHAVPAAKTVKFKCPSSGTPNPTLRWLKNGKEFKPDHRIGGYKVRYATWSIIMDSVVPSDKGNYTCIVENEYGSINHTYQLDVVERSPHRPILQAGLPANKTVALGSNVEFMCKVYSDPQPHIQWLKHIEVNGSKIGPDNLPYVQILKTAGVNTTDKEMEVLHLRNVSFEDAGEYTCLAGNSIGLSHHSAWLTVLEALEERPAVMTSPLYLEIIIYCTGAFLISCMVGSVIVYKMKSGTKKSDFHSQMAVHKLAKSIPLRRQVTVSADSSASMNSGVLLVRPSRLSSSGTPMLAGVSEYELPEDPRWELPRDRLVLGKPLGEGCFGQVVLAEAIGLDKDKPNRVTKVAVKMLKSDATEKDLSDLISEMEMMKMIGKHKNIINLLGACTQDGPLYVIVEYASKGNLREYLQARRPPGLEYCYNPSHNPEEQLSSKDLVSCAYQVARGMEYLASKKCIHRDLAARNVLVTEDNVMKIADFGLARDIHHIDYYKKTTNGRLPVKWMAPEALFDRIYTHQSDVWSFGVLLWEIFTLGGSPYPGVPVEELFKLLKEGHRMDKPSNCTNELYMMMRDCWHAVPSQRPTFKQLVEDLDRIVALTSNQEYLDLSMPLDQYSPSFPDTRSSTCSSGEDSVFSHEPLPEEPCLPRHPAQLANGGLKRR

Row | inhibition [1] [%] | inhibition [2] [%] | inhibition [3] [%] | inhibition [4] [%] | inhibition [5] [%] | inhibition [6] [%] | inhibition [7] [%] | solubility kinetic at 2 h [8] [µM] | Structure (SMILES) | other results
1 | -2 | 5 | 15 | -3 | -5 | 12 | 23 | 65 (≈ 30 µg/mL) | CN(C)CCNC(=O)c1ccc(-c2cc3c(N[C@H](CO)c4ccccc4)ncnc3s2)cc1 | efflux ratio at 10 µM (in vitro): > 20
2 | 9 | 1 | 11 | – | -7 | 6 | 7 | – | C[C@@H](Nc1ncnc2sc(-c3ccc(C(=O)NCCN(C)C)cc3)cc12)c1ccccc1 | –
3 | 9 | 4 | 11 | – | -6 | 3 | 6 | – | C[C@@H](Nc1ncnc2sc(-c3ccccc3C(N)=O)cc12)c1ccccc1 | –
4 | -1 | -8 | 7 | -9 | -4 | 3 | 2 | > 100 | COc1ccc(C(=O)NCCN(C)C)cc1-c1cc2c(N[C@H](C)c3ccccc3)ncnc2s1 | efflux ratio at 10 µM (in vitro): 63
5 | 1 | 4 | 1 | 15 | 1 | 4 | 8 | – | COc1cc(CO)ccc1-c1cc2c(N[C@H](C)c3ccccc3)ncnc2s1 | –

Second part, the compound before the results:

Row | Structure (SMILES) | inhibition [1] [%] | inhibition [2] [%] | inhibition [3] [%] | inhibition [4] [%] | inhibition [5] [%] | inhibition [6] [%] | inhibition [7] [%] | solubility kinetic at 2 h [8] [µM] | other results
6 | COc1cc(CO)ccc1-c1cc2c(Nc3ccccc3)ncnc2s1 | -6 | 9 | 13 | 7 | -4 | 15 | 38 | – | –
7 | C#Cc1cccc(Nc2ncnc3cc(OCCOC)c(OCCOC)cc23)c1 [ERLOTINIB] | – | 17 | 3 | 11 | -4 | – | – | 20 (≈ 7.87 µg/mL) | IC50 [9]: > 100 µM; IC50 [10]: 4.6 µM; IC50 [11]: 13 µM; IC50 (SW480): > 100 µM; Activity (Danio rerio [12]): Non-toxic; IC50 (MRC5): 5.8 µM; EC50 at 3.5 days [13]: 60 µM; IC50 [14]: 0.07 µM; IC50 [15]: 9.9 µM; IC50 [16]: > 100 µM; Activity (Danio rerio [17]): Toxic; IC50 [18]: 4.7 µM; IC50 (FaDu): 18 µM; IC50 (H9): 1.3 µM
8 | COc1cc(C(N)=O)ccc1-c1cc2c(N[C@H](CO)c3ccccc3)ncnc2s1 | 12 | 0 | 12 | -5 | -10 | 10 | 17 | – | LC50 at 84 h [19]: > 100 µM; Activity (Danio rerio [12]): Non-toxic; EC50 at 3.5 days [13]: 46 µM; Activity (Danio rerio [17]): Toxic
9 | COc1cc(CO)ccc1-c1cc2c(N[C@H](CO)c3ccccc3)ncnc2s1 | 7 | 1 | 1 | 3 | 4 | 18 | 10 | – | IC50 [9]: 43 µM; IC50 [10]: 9.7 µM; IC50 [11]: 11 µM; IC50 (SW480): 19 µM; LC50 at 84 h [19]: > 100 µM; Activity (Danio rerio [12]): Non-toxic; IC50 (MRC5): 37 µM; EC50 at 3.5 days [13]: 49 µM; IC50 [14]: 0.09 µM; IC50 [15]: 18 µM; IC50 [16]: 17 µM; Activity (Danio rerio [17]): Toxic; IC50 [18]: 4.2 µM; IC50 (FaDu): 43 µM; IC50 (H9): 12 µM
10 | C#Cc1cccc(Nc2ncnc3sc(-c4ccc(CO)cc4OC)cc23)c1 | 1 | -7 | 2 | – | -6 | 3 | 16 | – | –
11 | COc1cc(CO)ccc1-c1cc2c(Nc3ccc(F)c(Cl)c3)ncnc2s1 | 6 | 2 | 12 | -5 | -7 | 12 | 11 | 2 (≈ 0.832 µg/mL) | –
